Key:
Assay type in all cases: in vivo
[1] = tested on: barley, winter (winter barley, Hordeum vulgare); assay: Test D controlled growth environment herbicide test, pre- and postemergence
Description: (§1) Seeds of plant species selected from bluegrass (annual bluegrass, Poa annua), blackgrass (Alopecurus myosuroides), Canada thistle (Cirsium arvense), canarygrass (Phalaris minor), chickweed (common chickweed, Stellaria media), geranium, cutleaf (cutleaf geranium, Geranium dissectum), galium (catchweed bedstraw, Galium aparine), bromegrass, downy (downy bromegrass, Bromus tectorum), field poppy (Papaver rhoeas), field violet (Viola arvensis), foxtail, green (green foxtail, Setaria viridis), deadnettle (henbit deadnettle, Lamium amplexicaule), ryegrass, Italian (Italian ryegrass, Lolium multiflorum), kochia (Kochia scoparia), lambsquarters (Chenopodium album), oilseed rape (Brassica napus), pigweed (Amaranthus retroflexus), chamomile (scentless chamomile, Matricaria inodora), Russian thistle (Salsola kali), speedwell (bird's-eye speedwell, Veronica persica), barley, spring (spring barley, Hordeum vulgare), wheat, spring (spring wheat, Triticum aestivum), buckwheat, wild (wild buckwheat, Polygonum convolvulus), mustard, wild (wild mustard, Sinapis arvensis), oat, wild (wild oat, Avena fatua), radish, wild (wild radish, Raphanus raphanistrum), windgrass (Apera spica-venti), barley, winter (winter barley, Hordeum vulgare), and wheat, winter (winter wheat, Triticum aestivum) were planted into a silt loam soil and treated preemergence with test chemicals formulated in a non-phytotoxic solvent mixture which included a surfactant.
(§2) At the same time, these species were planted in pots containing Redi-Earth® planting medium (Scotts Company, 14111 Scottslawn Road, Marysville, Ohio 43041) comprising spaghnum peat moss, vermiculite, wetting agent and starter nutrients and treated with postemergence applications of the test chemicals formulated in the same manner. Plants ranged in height from 2 to 18 cm (1- to 4-leaf stage). Treated plants and controls were maintained in a controlled growth environment for 14 to 21 d after which time all species were compared to controls and visually evaluated. Plant response ratings, summarized in Table D, are based on a scale of 0 to 100 where 0 is no effect and 100 is complete control. A dash (-) response means no test result.

[2] = tested on: bluegrass (annual bluegrass, Poa annua); assay: as above
Description: as §1, §2

[3] = tested on: field violet (Viola arvensis); assay: as above
Description: as §1, §2

[4] = tested on: oat, wild (wild oat, Avena fatua); assay: as above
Description: as §1, §2

[5] = tested on: pigweed (Amaranthus retroflexus); assay: as above
Description: as §1, §2

[6] = tested on: radish, wild (wild radish, Raphanus raphanistrum); assay: as above
Description: as §1, §2

[7] = tested on: speedwell (bird's-eye speedwell, Veronica persica); assay: as above
Description: as §1, §2

[8] = tested on: wheat, winter (winter wheat, Triticum aestivum); assay: as above
Description: as §1, §2

[9] = tested on: windgrass (Apera spica-venti); assay: as above
Description: as §1, §2

[10] = tested on: waterhemp_RES2 (ALS & HPPD resistant common waterhemp, Amaranthus rudis); assay: Test E greenhouse herbicide test, postemergence
Summary of the method: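 Postemergence spray on potted plants, 1–4 leaves, 2–18 cm; greenhouse 14–21 d; visual rating vs controls, 0 (no effect) to 100 (complete control).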

[11] = Postemergence, 31 g ai/ha, scale 0 to 100 (0 no effect, 100 complete control)
[12] = Postemergence, 125 g ai/ha, visual rating on scale 0 (no effect) to 100 (complete control), 14 to 21 d
[13] = Postemergence, 250 g ai/ha, scale 0 to 100 (0 no effect, 100 complete control)
[14] = Preemergence, 62 g ai/ha, scale 0 to 100 (0 no effect, 100 complete control)
[15] = Preemergence, 125 g ai/ha, scale 0 to 100 (0 no effect, 100 complete control)
[16] = Preemergence, 250 g ai/ha, scale 0 to 100, 0 no effect, 100 complete control
[17] = postemergence, 62 g ai/ha, scale 0 to 100, 0 no effect, 100 complete control

CCc1sc2c(C)cc(C)cc2c1-c1c(O)c(C)nn(C)c1=O [Compound 57]
40: Radish, Wild plant response rating [6, 11]
35: Plant response rating, Windgrass [9, 14]
10: Plant response rating, Radish, Wild [6, 14] | Plant response rating, Wheat, Winter [8, 12] | Plant response rating, Wheat, Winter [8, 16] | Plant response rating, Wheat, Winter [8, 17] | Windgrass plant response rating [9, 11] | Plant response rating, Windgrass [9, 12] | Plant response rating, Windgrass [9, 17] | Plant response rating, Waterhemp_RES2 ([10]; 62 g ai/ha, scale 0 to 100 (0 no effect, 100 complete control))
20: Barley, Winter plant response rating [1, 11] | Plant response rating, Bluegrass [2, 14] | Plant response rating (scale of 0 to 100), Windgrass ([9]; Preemergence, 31 g ai/ha) | Plant response rating, Waterhemp_RES2 ([10]; 31 g ai/ha, visual, scale 0 no effect to 100 complete control) | Plant response rating, Waterhemp_RES2 ([10]; 125 g ai/ha, scale 0 to 100 (0 no effect, 100 complete control))
65: Plant response rating, Bluegrass [2, 16] | Plant response rating, Oat, Wild [4, 12] | Plant response rating, Windgrass [9, 15]
95: Plant response rating (scale of 0 to 100), Field Violet ([3]; Preemergence, 31 g ai/ha)
0: Plant response rating (scale of 0 to 100), Barley, Winter ([1]; Preemergence, 31 g ai/ha) | Plant response rating, Barley, Winter [1, 14] | Plant response rating (scale of 0 to 100), Bluegrass ([2]; Preemergence, 31 g ai/ha) | Plant response rating (scale of 0 to 100), Radish, Wild ([6]; Preemergence, 31 g ai/ha)
60: Plant response rating, Oat, Wild [4, 16]
85: Plant response rating, Field Violet [3, 13] | Plant response rating, Oat, Wild [4, 13] | Pigweed plant response rating [5, 11] | Plant response rating, Pigweed [5, 17]
75: Plant response rating, Field Violet [3, 12] | Plant response rating, Pigweed [5, 14]
70: Plant response rating, Field Violet [3, 17] | Plant response rating (scale of 0 to 100), Pigweed ([5]; Preemergence, 31 g ai/ha)
50: Plant response rating, Oat, Wild [4, 15] | Plant response rating, Waterhemp_RES2 ([10]; 250 g ai/ha, scale 0 to 100 (0 no effect, 100 complete control))
15: Plant response rating, Bluegrass [2, 12] | Plant response rating, Bluegrass [2, 13] | Plant response rating, Bluegrass [2, 17] | Oat, Wild plant response rating [4, 11] | Plant response rating (scale of 0 to 100), Oat, Wild ([4]; Preemergence, 31 g ai/ha) | Plant response rating, Speedwell [7, 17] | Plant response rating, Wheat, Winter [8, 13] | Plant response rating, Windgrass [9, 13]
100: Plant response rating, Field Violet [3, 14] | Plant response rating, Field Violet [3, 15] | Plant response rating, Field Violet [3, 16] | Plant response rating, Pigweed [5, 12] | Plant response rating, Pigweed [5, 13] | Plant response rating, Pigweed [5, 16] | Plant response rating, Radish, Wild [6, 12] | Plant response rating, Radish, Wild [6, 16] | Plant response rating, Radish, Wild [6, 17] | Speedwell plant response rating [7, 11] | Plant response rating, Speedwell [7, 13] | Plant response rating, Speedwell [7, 15] | Plant response rating, Speedwell [7, 16]
90: Plant response rating, Radish, Wild [6, 13] | Plant response rating, Speedwell [7, 14]
5: Plant response rating, Barley, Winter [1, 15] | Plant response rating, Barley, Winter [1, 16] | Bluegrass plant response rating [2, 11] | Wheat, Winter plant response rating [8, 11] | Plant response rating (scale of 0 to 100), Wheat, Winter ([8]; Preemergence, 31 g ai/ha) | Plant response rating, Wheat, Winter [8, 14] | Plant response rating, Wheat, Winter [8, 15]
25: Plant response rating, Barley, Winter [1, 12] | Plant response rating, Barley, Winter [1, 13] | Plant response rating, Bluegrass [2, 15] | Plant response rating, Oat, Wild [4, 17] | Plant response rating, Radish, Wild [6, 15] | Plant response rating, Speedwell [7, 12] | Plant response rating (scale of 0 to 100), Speedwell ([7]; Preemergence, 31 g ai/ha)
30: Plant response rating, Barley, Winter [1, 17] | Plant response rating, Oat, Wild [4, 14]
80: Field Violet plant response rating [3, 11] | Plant response rating, Windgrass [9, 16]
98: Plant response rating, Pigweed [5, 15]

Reference: US10597388B2, “Pyridazinone herbicides” (FMC CORPORATION, priority 2014, dated 2020)
